From US9315491B2 (DEVELOPMENT CENTER FOR BIOTECHNOLOGY, priority 2009, dated 2016) come the findings set out here.

Molecules are shown by their SMILES.

Sequence of PI3K (p110α/p85α) (P42336 whole entry, species assumed): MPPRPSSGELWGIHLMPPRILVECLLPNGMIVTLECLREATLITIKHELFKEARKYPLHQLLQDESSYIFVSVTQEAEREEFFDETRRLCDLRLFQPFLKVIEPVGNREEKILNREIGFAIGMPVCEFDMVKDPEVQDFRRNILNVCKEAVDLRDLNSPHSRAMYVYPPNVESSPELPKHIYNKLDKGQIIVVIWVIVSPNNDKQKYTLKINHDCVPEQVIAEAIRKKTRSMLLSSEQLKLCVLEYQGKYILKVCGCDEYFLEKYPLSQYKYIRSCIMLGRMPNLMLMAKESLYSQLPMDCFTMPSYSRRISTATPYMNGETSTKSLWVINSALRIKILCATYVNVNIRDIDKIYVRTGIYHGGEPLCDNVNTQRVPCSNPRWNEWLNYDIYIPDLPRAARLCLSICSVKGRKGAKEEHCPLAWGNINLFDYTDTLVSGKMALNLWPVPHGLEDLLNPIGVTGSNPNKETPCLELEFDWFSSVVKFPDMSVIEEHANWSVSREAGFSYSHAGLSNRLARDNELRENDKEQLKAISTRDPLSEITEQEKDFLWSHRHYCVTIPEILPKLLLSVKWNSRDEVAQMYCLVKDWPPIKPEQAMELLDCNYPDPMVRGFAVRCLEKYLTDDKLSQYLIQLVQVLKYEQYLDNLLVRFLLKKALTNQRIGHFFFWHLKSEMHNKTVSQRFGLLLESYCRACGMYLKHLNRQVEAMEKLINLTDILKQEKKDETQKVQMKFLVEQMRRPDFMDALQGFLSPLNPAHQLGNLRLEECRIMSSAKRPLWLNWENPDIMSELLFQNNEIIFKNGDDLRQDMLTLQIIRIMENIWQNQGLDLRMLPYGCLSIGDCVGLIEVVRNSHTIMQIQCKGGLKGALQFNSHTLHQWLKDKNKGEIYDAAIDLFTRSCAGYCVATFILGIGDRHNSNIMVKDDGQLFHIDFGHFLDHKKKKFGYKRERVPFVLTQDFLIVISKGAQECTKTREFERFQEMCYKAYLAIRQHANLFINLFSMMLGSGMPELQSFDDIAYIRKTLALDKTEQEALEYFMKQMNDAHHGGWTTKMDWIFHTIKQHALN
Sequence of PI3K (p110α/p85α) (P27986 whole entry partner, species assumed): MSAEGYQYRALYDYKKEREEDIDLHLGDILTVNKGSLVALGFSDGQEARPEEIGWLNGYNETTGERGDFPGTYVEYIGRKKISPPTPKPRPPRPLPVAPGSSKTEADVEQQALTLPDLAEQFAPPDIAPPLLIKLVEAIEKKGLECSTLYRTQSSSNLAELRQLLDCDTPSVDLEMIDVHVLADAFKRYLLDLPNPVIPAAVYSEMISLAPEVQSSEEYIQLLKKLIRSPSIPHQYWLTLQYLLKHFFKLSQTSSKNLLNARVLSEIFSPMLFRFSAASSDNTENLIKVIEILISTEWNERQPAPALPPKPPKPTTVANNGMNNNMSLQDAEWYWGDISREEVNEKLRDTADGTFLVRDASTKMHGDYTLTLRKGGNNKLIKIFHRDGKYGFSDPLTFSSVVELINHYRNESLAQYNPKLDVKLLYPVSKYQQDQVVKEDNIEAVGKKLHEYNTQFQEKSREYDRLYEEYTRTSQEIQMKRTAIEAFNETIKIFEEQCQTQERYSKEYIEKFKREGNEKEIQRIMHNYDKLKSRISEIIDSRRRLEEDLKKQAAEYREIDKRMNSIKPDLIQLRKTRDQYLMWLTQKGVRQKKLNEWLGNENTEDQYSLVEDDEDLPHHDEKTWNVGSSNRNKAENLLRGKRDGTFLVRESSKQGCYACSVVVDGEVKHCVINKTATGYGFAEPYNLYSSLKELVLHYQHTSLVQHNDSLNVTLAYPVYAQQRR

The target in the assay is PI3K (p110α/p85α) (Homo sapiens (Human), UniProt P42336). Description: PI3K HTRF enzyme assay, p110α/p85α. Format: biochemical. To be noted: read-out: % inhibition @ 500 nM p110α; compound at 500 nM, 10 μM ATP. The method, then:
Recombinant PI3K (p110α/p85α) and PI3K (p110β/p85α) were from Millipore. […] Briefly, the compounds of interest dissolved in 100% DMSO were dispensed in all wells, following which the mixture of PIP2 and enzyme was added. PI3K (p110α/p85α) and PI3K (p110β/p85α) enzyme reactions were initiated in the presence of 10 μM and 100 μM ATP, respectively, and incubated for 30 min at room temperature. STOP solution prepared 2 hours prior to use was added to stop reactions, and mixed well. Detection solution prepared 2 hours prior to use was added, and incubated at room temperature for 17 hours in the dark. […] HTRF ration was calculated as follows: […]
In general, inhibition refers to the change of the read-out against control, counted positive when it falls. With `CSc1c(-c2cccnc2)nc(-c2ccc(NC(=O)Nc3ccc(N4CCOCC4=O)cc3)cc2)nc1N1CCOCC1` [MTR-0457, 1-[4-(5-Methylsulfanyl-4-morpholin-4-yl-6-pyridin-3-yl-pyrimidin-2-yl)-phenyl]-3-[4-(3-oxo-morpholin-4-yl)-phenyl]-urea], the inhibition at 0.5 µM came out at 47.4%.
In the case of `COc1cnc(-c2ccc(NC(=O)Nc3ccccc3)cc2)nc1N1CCOCC1` [MTR-0128, 1-[4-(5-Methoxy-4-morpholin-4-yl-pyrimidin-2-yl)-phenyl]-3-phenyl-urea], the inhibition at 0.5 µM was 85.8%.
The result for `COc1cnc(-c2ccc(NC(=O)Nc3ccc(C(=O)N4CCOCC4)cc3)cc2)nc1N1CCOCC1` [MTR-0382, 1-[4-(5-Methoxy-4-morpholin-4-yl-pyrimidin-2-yl)-phenyl]-3-[4-(morpholine-4-carbonyl)-phenyl]urea] reads 95.9%; that for `CCOc1cnc(-c2ccc(NC(=O)Nc3ccc(NC(C)=O)nc3)cc2)nc1N1CCOCC1` [MTR-0442, N-(5-{3-[4-(5-Ethoxy-4-morpholin-4-yl-pyrimidin-2-yl)-phenyl]-ureido}-pyridin-2-yl)-acetamide], 79.1%.
The result for `CSc1c(-c2ccncc2)nc(-c2ccc(NC(=O)Nc3ccc(C(N)=O)cc3)cc2)nc1N1CCOCC1` [MTR-0392, 4-{3-[4-(5-Methylsulfanyl-4-morpholin-4-yl-6-pyridin-4-yl-pyrimidin-2-yl)-phenyl]-ureido}-benzamide] reads 46.6%; that for `NC(=O)c1ccc(NC(=O)Nc2ccc(-c3ncc(OCCN4CCOCC4)c(N4CCOCC4)n3)cc2)cc1` [MTR-0456, 4-(3-{4-[4-Morpholin-4-yl-5-(2-morpholin-4-yl-ethoxy)-pyrimidin-2-yl]-phenyl}-ureido)-benzamide], 52.6%.
As to `CSc1c(Cl)nc(-c2ccc(NC(=O)Nc3ccc(NS(C)(=O)=O)cc3)cc2)nc1N1CCOCC1` [MTR-0347, N-(4-{3-[4-(4-Chloro-5-methylsulfanyl-6-morpholin-4-yl-pyrimidin-2-yl)-phenyl]-ureido}-phenyl)-methanesulfonamide], the inhibition at 0.5 µM came out at 80.6%.
For the molecule `CCOc1cnc(-c2ccc(NC(=O)Nc3ccncc3)cc2)nc1N1CCOCC1` [MTR-0446, 1-[4-(5-Ethoxy-4-morpholin-4-yl-pyrimidin-2-yl)-phenyl]-3-pyridin-4-yl-urea], the inhibition at 0.5 µM was determined as 66.3%.
Regarding `COc1cnc(-c2ccc(NC(=O)Nc3ccc(NS(C)(=O)=O)cc3)cc2)nc1N1CCOCC1` [MTR-0449, N-(4-{3-[4-(5-Methoxy-4-morpholin-4-yl-pyrimidin-2-yl)-phenyl]-ureido}-phenyl)-methanesulfonamide], the inhibition at 0.5 µM turned out to be 75.4%.
The result for `CSc1c(Cl)nc(-c2ccc(NC(=O)Nc3ccc4oc(=O)[nH]c4c3)cc2)nc1N1CCOCC1` [MTR-0372, 1-[4-(4-Chloro-5-methylsulfanyl-6-morpholin-4-yl-pyrimidin-2-yl)-phenyl]-3-(2-oxo-2,3-dihydro-benzooxazol-5-yl)-urea] reads 95.5%.
The result for `COc1cnc(-c2ccc(NC(=O)Nc3cccnc3)cc2)nc1N1CCOCC1` [MTR-0228, 1-[4-(5-Methoxy-4-morpholin-4-yl-pyrimidin-2-yl)-phenyl]-3-pyridin-3-yl-urea] reads 74.4%.
The result for `CSc1cnc(-c2ccc(NC(=O)Nc3ccncc3)cc2)nc1N1CCOCC1` [MTR-0462, 1-[4-(5-Methylsulfanyl-4-morpholin-4-yl-pyrimidin-2-yl)-phenyl]-3-pyridin-4-yl-urea] reads 67.9%; that for `O=C(Nc1ccc(C(=O)N2CCOCC2)cc1)Nc1ccc(-c2ncc(OCCN3CCOCC3)c(N3CCOCC3)n2)cc1` [MTR-0454, 1-[4-(Morpholine-4-carbonyl)-phenyl]-3-{4-[4-morpholin-4-yl-5-(2-morpholin-4-yl-ethoxy)-pyrimidin-2-yl]-phenyl}-urea], 74.4%.
Consider `CCOc1cnc(-c2ccc(NC(=O)Nc3ccc(NC(C)=O)cc3)cc2)nc1N1CCOCC1` [MTR-0368, N-(4-{3-[4-(5-Ethoxy-4-morpholin-4-yl-pyrimidin-2-yl)-phenyl]-ureido}-phenyl)-acetamide], for which the inhibition at 0.5 µM came to 101%.
